Assay results taken from publication PMC9563815, “Overcoming high level adenosine-mediated immunosuppression by DZD2269, a potent and selective A2aR antagonist” (Journal of Experimental & Clinical Cancer Research : CR, 2022).
Each block holds one molecule with its values, some of them ahead of it.

Columns and labels:
A2aR = target: T1, A2aR (Homo sapiens, UniProt P29274); assay: cAMP accumulation assay (HTRF) in CHO-A2aR cells; format: cell-based
T1 construct: host or cells: CHO
Protocol: CHO cells stably expressing human adenosine receptors (CHO-A2aR, CHO-A2bR, CHO-A1R and CHO-A3R) were purchased from GenScript. […] All CHO cells were cultured in Ham’s F12K medium (Gibco) with 10% FBS (Gibco) and RM-1 in DMEM (Gibco) medium with 10% FBS. […] All other cells were cultured without antibiotics. All cells were maintained and propagated in a humidified incubator at 37 °C, 5% CO2.
Assays were performed with HTRF cAMP kit (Cisbio, 62AM4PEJ). […] CHO-A2aR and CHO-A2bR cells were seeded in the plates at a density of 5,000 cells/well in F-12 medium containing 10% FBS. […] The dose-response curves were fitted by nonlinear regression using GraphPad Prism.

[1] = test system: CREB phosphorylation in T cells; assay: pCREB signaling inhibition assay, ex vivo human whole blood T cells; format: cell-based; details: for IC50: Homo sapiens, T-cell, read-out: IC50, block of CREB phosphorylation in CD4+ T cells; for pCREB at the highest concentration tested: 10 µM antagonist
Protocol: Whole blood samples from three different healthy donors were collected and seeded in 96-well deep plates at a concentration of 90 µL/well. […] Cells were then lysed and fixed with BD Lyse/Fix Buffer (BD Bioscience, 558,049) for 15 min at 37 °C. After washed twice with DPBS (Hyclone, SH30028.02), the cells were centrifuged at 600 × g for 8 min. Cells were permeabilized by slow addition of BD Phosflow™ Perm Buffer III (BD Bioscience, 55,805) and incubated on ice for 60 min, and then resuspended in DPBS and stained with anti-CD3, anti-CD4, anti-CD8, and anti-pCREB (Ser133) antibodies for 1 h at room temperature in the dark. Cells were then washed twice and acquired on a flow cytometric (BD FACSCanto™ II) with DIVA software (BD Biosciences). The reported pCREB signal is the mean fluorescent intensity (MFI).
For ex vivo pCREB assessment, whole blood samples were collected from healthy donors, plated at 90 µL/well in 96-well deep plates, and pre-incubated with DZD2269 at 37 °C for 30 min.

[2] = test system: monocyte-derived dendritic cells; assay: DC maturation assay (CD83); format: cell-based, human; details: LPS-stimulated iDCs, 10 µM NECA
Protocol: Monocytes were isolated from human PBMCs using untouched human monocytes kit (Invitrogen, #11350D) according to the manufacturer instruction. Isolated monocytes were cultured with 100 ng/ml GM-CSF (R&D, 215-GM) and 50 ng/ml IL-4 (R&D, 204-IL) supplemented every 2 days. On day 5, 100 ng/ml LPS (Sigma, L4391) was added for 48 h to stimulate DC maturation. […] CD83 was measured as DC maturation marker by flow cytometry, and the gating strategy is shown in supplemental Fig. S2. Data were analyzed with FlowJo software.

activated human PBMCs = assay: PBMC cytokine release assay (IL-2, IFN-γ, TNF-α); format: cell-based; details: NECA at 10 µM
Protocol: PBMCs (2 × 10^5 cells/well) were seeded in 96 well plate pre-coated with 10 ng/ml anti-CD3 antibody and stimulated with 20 ng/ml anti-CD28 antibodies to test IFN-γ and IL-2 secretion) or stimulated with 100 ng/ml LPS for TNF-α detection. […] Cell supernatants were collected at 24 h (IL-2 and TNF-α) and 72 h (IFN-γ) post-stimulation. IL-2 (R&D, S2050), IFN-γ (R&D, SIF50) and TNF-α (eBioscience, 88-7346-88) ELISA kits were used for measurement.

[3] = test system: CREB phosphorylation in CD3+ T cells; assay: CREB phosphorylation assay in whole blood; format: cell-based; details: human whole blood, up to 100 µM
Protocol: Whole blood samples from three different healthy donors were collected and seeded in 96-well deep plates at a concentration of 90 µL/well. […] After washed twice with DPBS (Hyclone, SH30028.02), the cells were centrifuged at 600 × g for 8 min. […] Cells were then washed twice and acquired on a flow cytometric (BD FACSCanto™ II) with DIVA software (BD Biosciences). The reported pCREB signal is the mean fluorescent intensity (MFI).

[4] = parameters: method as in PMID 24835328, PMID 32685154; details: cited from earlier work
Pan02 tumors = assay: Pan02 pancreatic subcutaneous syngeneic model; format: in vivo, C57BL/6 mice; details: oxaliplatin 10 mg/kg alone or DZD2269 3 mg/kg alone
Protocol: B16F10, RM-1 and Pan02 cells were harvested and suspended in DPBS. Single-cell suspensions of greater than 90% viability were used for injection. Tumor cells were injected subcutaneously in the left flank of the C57BL/6 mice with a total cell number of 2 × 10^6 (B16F10 and RM-1) and 1 × 10^7 cells (Pan02) in a volume of 0.1 ml. Tumor-bearing mice were randomized into treatment groups when the mean tumor volume reached 40 to 100 mm^3. Mice were then treated with vehicle or compounds starting the day after randomization, and tumor volume and body weight were measured twice a week. Tumor growth inhibition from the onset of treatment was assessed by comparing the mean change in tumor volume between control and treatment groups and expressed as tumor growth inhibition. Tumor nodules were measured two-dimensionally with calipers, and tumor volumes were calculated using the following formula: tumor volume (TV) = (length × width^2) × 0.52.
Tumor tissues were collected at the end of the study. […] Positive cell percentage of stained IHC slides was quantified with a HALO image analysis platform (Indica Labs).
Fig. 4 DZD2269 enhances the efficacy of radiotherapy (RT) in syngeneic mouse in vivo models. […] (A) IFN-γ in supernatant was measured 72 h after co-culture. (B) IL-2 in supernatant was measured 24 h after co-culture. […] Infiltrated CD8 + and CD4 + T cells were determined by IHC. […]

T1 sequence (P29274 whole entry): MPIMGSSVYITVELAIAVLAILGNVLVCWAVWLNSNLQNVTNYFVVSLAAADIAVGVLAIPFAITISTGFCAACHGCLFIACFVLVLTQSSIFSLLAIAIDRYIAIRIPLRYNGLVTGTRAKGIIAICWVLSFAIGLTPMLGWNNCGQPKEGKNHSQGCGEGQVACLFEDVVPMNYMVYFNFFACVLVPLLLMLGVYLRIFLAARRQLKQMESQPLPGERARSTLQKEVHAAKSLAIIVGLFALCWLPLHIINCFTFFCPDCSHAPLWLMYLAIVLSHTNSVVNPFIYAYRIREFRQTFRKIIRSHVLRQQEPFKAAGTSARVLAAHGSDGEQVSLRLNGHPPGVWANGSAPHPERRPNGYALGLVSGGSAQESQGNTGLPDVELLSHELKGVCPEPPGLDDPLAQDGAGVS

SMILES: CCNC(=O)[C@H]1O[C@@H](n2cnc3c(N)ncnc32)[C@H](O)[C@@H]1O [NECA, 5′-N-ethylcarboxamide adenosine]
IL-2, IFN-γ and TNF-α production (activated human PBMCs): completely blocked | CREB phosphorylation in CD3+ T cells [3]: stimulated CREB phosphorylation in a concentration dependent manner

SMILES: Nc1ncnc2c1ncn2[C@@H]1O[C@H](CO)[C@@H](O)[C@H]1O [adenosine]
Biological half-life in human blood [4]: less than 10 s

SMILES: O=C1[O][Pt]2([NH][C@@H]3CCCC[C@H]3[NH]2)[O]C1=O [oxaliplatin, Oxaliplatin]
Anti-tumor effect, single agent (Pan02 tumors): showed some anti-tumor effect

More lines, main results first:

IC50 (A2aR; stimulated with 0.1 µM NECA): 0.0041 ± 0.0012 µM | IC50 (A2aR; stimulated with 1 µM adenosine): 0.0034 ± 0.00092 µM | IC50 (A2aR; stimulated with 10 µM NECA): 0.408 ± 0.025 µM | IC50 (A2aR; stimulated with 100 µM adenosine): 0.463 ± 0.09 µM | IC50 [1]: 0.13 µM
SMILES: Cc1c(C#N)cccc1-c1cc(-c2cn(Cc3cccc(C(C)(C)O)n3)nn2)nc(N)n1 [AB928]
Concentration that brings pCREB to the control level ([1]; human whole blood, 10 µM NECA): over 1,000 nM | Relief of NECA inhibition of DC maturation (CD83) [2]: did not relieve the inhibitory effect

IC50 [1]: > 1 µM
SMILES: Cc1cc(-c2nnc(N)nc2-c2ccc(F)cc2)cc(Cl)n1 [AZD4635]
pCREB at the highest concentration tested ([1]; human whole blood, 10 µM NECA): failed to bring pCREB to the baseline (control) level

IC50 [1]: > 1 µM
SMILES: Cc1ccc(-c2nc(N)nc3c2nnn3Cc2cccc(CO[C@H]3CCOC3)n2)o1 [CPI-444]
pCREB at the highest concentration tested ([1]; human whole blood, 10 µM NECA): failed to bring pCREB to the baseline (control) level
